The source of these data is patent publication US10640524B2, “Prototype systems of theranostic biomarkers for in vivo molecular management of cancer” (EPOS-IASIS RESEARCH AND DEVELOPMENT, LTD, priority 2015, dated 2020).

For data set [1], the system named is colon cancer cells (SW480). The data set can be described thus: Antiproliferative effect of A1F-D1F on colon cancer cells. Conditions: for effect on cell viability with respect to the control (no drug): SW480, FIG. 3; for cell viability with respect to the control: human, 24 h. It counts as cell-based. As to the method:
The antiproliferative effect of the following compounds A1F, B1F, C1F and D1F were tested on colon cancer cells (SW480).

The next data set has as its system LoVo cells. Nature of the data set: MTT colorimetric assay of antiproliferative efficacy. The format is cell-based. Conditions: FIG. 4. A general note: Formazan colour is commonly taken as a measure of viable cells.
A further data set relates to SW620 cells. Nature of the data set: Label-free temporal quantitative pharmacoproteomics. To be noted: 0.04 mM. It counts as cell-based. The protocol:
The following experiment was performed to uncover new biomarkers of therapeutic response to the anticancer efficacy of the natural product based theranostic systems of the present invention.
In this experiment, SW620 cells were seeded in T75 flasks in DMEM, 10% FBS and 1% Penicillin/Streptomycin (all from Gibco). The cells were allowed to attach overnight. The following day the medium was removed and fresh medium containing 0.04 mM of either γT (γ-tocotrienol) or DCE-γT (diluted in absolute ethanol; final concentration of ethanol in the medium was 0.1% v/v). For control untreated cells, equal amount of fresh medium (containing ethanol at 0.1% v/v final concentration) was added.
SW620 cells were harvested after 24, 36 and 48 hrs of incubation with γT or DCE-γT. Briefly, the medium was removed and the cells were rinsed three times with PBS (without Ca, Mg) (Gibco). Fresh PBS was added and the cells were scraped off the flasks and collected in tubes. Collected cells were centrifuged at 1000 rpm (165 g) for 3 min and the supernatant was removed. The cell pellet was re-suspended in PBS and the centrifugation step was repeated. The supernatant was removed and the cells in minimal residual PBS were snap-freezed in liquid nitrogen. Once frozen the cells were stored in −80° C. until the proteomics analysis.
In terms of data analysis, a threshold of relative protein abundance equal or greater than 1.5-fold increase or decrease was set.

The nature of data set [2]: In vivo biodistribution by quantitative fluorescence imaging. Also on record: species or system mouse. The protocol:
A study of the in vivo biodistribution of a dicarboxylic ester of γ-Tocotrienol (DCE-γT) (enabled by customized histopathologic processing and quantitative fluorescence imaging) was performed. The study disclosed liver uptake as a function of time defining fluorescent chromanol esters as valued molecular probes. The structure of the dicarboxylic ester of γ-Tocotrienol (DCE-γT) is as follows:
Fluorescent signals of the DCE-γT and its free fluorescent metabolite, corresponding to the fluorescent ligand, peaked at 30 min and 3 hrs respectively, which was in agreement with in vitro findings. Colon uptake as a function of time confirms the mitochondrial predilection of the esterified chromanols and claims a new generation of optically active mitocans.

Data set [3] deals with T1, EGFR membrane tyrosine kinase receptor (Homo sapiens, UniProt P00533).
T1 construct: expressed in transfected cells
Nature of the data set: FRET between EGFR-Luc and fluorescent ester in transfected cells. The format is cell-based. To be noted: EGFR negative colon cancer cells transfected with EGFR-Luc plasmid; FIG. 5. As to the method: The fluorescent esters of the natural products disclosed herein can also be used as molecular probes for deciphering the interaction between the natural product and potential biomarkers in cancer cells. EGFR negative colon cancer cells were transiently transfected with a rationally designed EGFR-Luc plasmid and incubated with the DCE-γ-Tocotrienol ester. Bioluminescence of the Luciferase (donor) was assessed against the fluorescence signal of either the DCE-γ-Tocotrienol ester or the hydrolysis product (acceptor).

In data set [4] the test system is EGFR-Luc and Grb2-GFP interaction. The data set can be described thus: BRET of the interaction between EGFR-Luc and Grb2-GFP. The format is cell-based. (BRET reads energy transfer from a luciferase to a nearby fluorophore.)

Turning to `C=CC(=O)Nc1cc2c(Nc3ccc(Br)cc3)ncnc2cc1NC(=O)CCl` [A1F], in data set [1], the “effect on cell viability with respect to the control (no drug)” value (shortened to “effect on cell viability … (no drug)”) is “reduce the viability of the cells” and the “cell viability with respect to the control” value came to 20%.

As to `C=CC(=O)Nc1cc2c(Nc3ccc(C(C)C)cc3)ncnc2cc1NC(=O)CCl` [B1F], the “effect on cell viability … (no drug)” value in data set [1] is on record as “reduce the viability of the cells”.

On to `C=CC(=O)Nc1cc2c(NCc3cccc4ccccc34)ncnc2cc1NC(=O)CCl` [C1F], for which, in data set [1], the “effect on cell viability … (no drug)” value is given as “reduce the viability of the cells” and the “cell viability with respect to the control” value is listed as 20%.

For `C=CC(=O)Nc1cc2c(Nc3ccc(C(C)(C)C)cc3)ncnc2cc1NC(=O)CCl` [D1F], in data set [1], the “effect on cell viability … (no drug)” value is “reduce the viability of the cells” and the “cell viability with respect to the control” value came to 20%.

In the case of `CC1(C)C(/C=C/C=C/C=C/C=C2\N(CCCCS(=O)(=O)[O-])c3ccc4ccccc4c3C2(C)C)=[N+](CCCCS(=O)(=O)[O-])c2ccc3ccccc3c21.[Na+]` [free cyanine dye, indocyanine green, reference compound], the antiproliferative efficacy entry in the data set on LoVo cells is “did not exhibit any antiproliferative effects”.

For `CCN1\C(=C/C=C/C=C/C=C/C2=[N+](CCCCCC(=O)NCC(=O)Nc3cccc(Nc4ncnc5ccc(NC(=O)COC)cc45)c3)c3ccc4ccccc4c3C2(C)C)C(C)(C)c2c1ccc1ccccc21.[Br-]` [theranostic system], the antiproliferative efficacy entry with LoVo cells is listed as “significantly higher antiproliferative efficacy than free anilinoquinazoline”.

As to `CC(C)=CCC/C(C)=C/CC/C(C)=C/CC[C@]1(C)CCc2cc(O)c(C)c(C)c2O1` [γT, γ-tocotrienol, reference compound], in the data set on SW620 cells (versus untreated control), the “decrease in protein level of histone H2B types” value is reported as 1.8 fold, the “decrease in protein level of histone H3 types” value is “at least 3.7 fold”, the “decrease in protein level of hnRNPs” value is “at least 2 fold” and the “decrease in protein level of snRNPs” value worked out at 1.8 fold. Besides, in the data set on SW620 cells (versus untreated control), the “increase in histone H2A.Z” value is 24 fold, the “increase in level of RNA helicases” value is not below 1.9 fold, the “increase in level of certain snRNP components” value is given as not below 3 fold and the “increase in level of transcription regulators/co-factors” value is given as not below 2 fold.

As for “dicarboxylic ester of γ-Tocotrienol [DCE-γT]”, in data set [2] (in vivo biodistribution, liver uptake as a function of time), the “time of peak fluorescent signal” value is 30 min. Also, the “blood brain barrier passage” value in data set [2] (uptake by mouse brain parenchyma cells) was “able to pass the blood brain barrier”. For the same compound, the FRET signal entry in data set [3] is “amplified FRET signal”. Also, in data set [4], the “activation within the EGFR axis” value was “neither the ester nor the hydrolysis products elicit any unwanted activation”. Moreover, the “number of proteins whose expression was elicited” value (shortened to “number”) in the data set on SW620 cells (24 hrs) turned out to be 37. Moreover, the “number” value in the data set on SW620 cells (36 hrs) is 30. For the same compound, the “number” value with SW620 cells (48 hrs) came to 29. Moreover, in the data set with SW620 cells (versus untreated control), the “decrease in DNA repair factors” value was 2 fold, the “decrease in protein level of histone H3 types” value is “at least 6 fold”, the “decrease in protein level of snRNPs” value worked out at 2 fold and the “increase in histone H2A.Z” value is 23 fold. Besides, the “increase in histone H3 forms” value in the data set with SW620 cells (versus untreated control) is not below 1.8 fold.
